The values below come from publication PMC11117652, “The Construction and Application of a New Screening Method for Phosphodiesterase Inhibitors” (Biosensors, 2024).

“And” between values parts separate entries of the source, which are not always exact repeats. Equal entries are not always repeated. Where two headings read alike, the source gives them in different places.

For one assay, the system named is cGMP-related PDEs. As to the kind of experiment: GloSensor live-cell screening model targeting cGMP (pGloSensor-42F cGMP plasmid in HEK293T cells, SNAP-stimulated). As to conditions: Homo sapiens, HEK-293T, read-out: IC50 detected using the cell screening model targeting cGMP. The class given is cell-based. On the procedure:
The HEK293T human embryonic kidney cell line was purchased from SunnCell (Wuhan, China). After recovery, HEK293T cells were passaged 3–4 times a week and cultured at 37 °C in 5% CO2. The culture medium consisted of DMEM, 10% FBS, and 1% antibiotic solution. Cells were grown to a density of 70–80% in a 6 cm culture dish, the original culture medium was discarded, and 3 mL Opti-MEM was added. A total of 5 μL lipo2000 transfection reagents and 7 μL plasmids were each diluted to 50 μL with Opti-MEM. The above two solutions were mixed, allowed to stand for 20 min, and then added to the cell culture medium. They were then incubated with 5% CO2 at 37 °C for 5 h. The original culture medium was discarded and replaced with the DMEM culture medium. After overnight cultivation at 37 °C and 5% CO2, the transfected cells were transferred to a 96-well plate and cultured under the same conditions for 9 h. The original culture medium was replaced with 80 μL/well loaded culture medium (containing 2 mM D-Luciferin protein) and incubated at room temperature (20–23 °C) in the dark for 2 h. A total of 10 μL/well with a concentration of 50 μM forskolin (for cAMP testing) or 250 μM SNAP (for cGMP testing) was added to the sample culture medium to increase the level of background cyclic nucleotides in the cells. According to the detection requirements, a certain concentration of analytes was sequentially added to different wells, and the luminescence signal was measured using the SynergyNeo2 (Agilent, Santa Clara, CA, USA) instrument at time 0. The measurement was conducted every 5 min, and the longest duration was based on the start of the luminescence signal’s decline. Data analysis was carried out using Microsoft Excel and GraphPad Prism 8 software (version 8.0.2 for Windows, GraphPad Software, San Diego, CA, USA). The data in the luminescence signal from the replica well were averaged to produce a response vs. time curve. The cell screening results of the compounds were expressed as percentages (the difference in luminescence signals between the experimental group and the blank control group/blank control group luminescence signal × 100%). For the measurement of IC50, at least seven concentrations of chemicals were used, and IC50 values were calculated using the nonlinear method. […] Similar to the cell screening models targeting cAMP, the cell screening models targeting cGMP could not effectively detect the ability of sildenafil to increase intracellular cGMP levels when the GC agonist SNAP was not present or was at low concentrations. […] To determine the shortest detection time for the two cell models, the luminescence signal–time curve was established.

The next assay has as its system cAMP-related PDEs. Nature of the assay: GloSensor live-cell screening model targeting cAMP (pGloSensor-22F cAMP plasmid in HEK293T cells, forskolin-stimulated). In kind it is cell-based, human. As to conditions: for IC50: Homo sapiens, HEK-293T, HEK293T cells, 5 μM forskolin, n = 3, read-out: IC50 detected using the cell screening model targeting cAMP; for Luminescence Signal (%): cAMP cell screening model, (experimental group - blank control)/blank control luminescence x 100%, compound concentration not given. On the procedure:
The HEK293T human embryonic kidney cell line was purchased from SunnCell (Wuhan, China). After recovery, HEK293T cells were passaged 3–4 times a week and cultured at 37 °C in 5% CO2. The culture medium consisted of DMEM, 10% FBS, and 1% antibiotic solution.
Cells were grown to a density of 70–80% in a 6 cm culture dish, the original culture medium was discarded, and 3 mL Opti-MEM was added. A total of 5 μL lipo2000 transfection reagents and 7 μL plasmids were each diluted to 50 μL with Opti-MEM. The above two solutions were mixed, allowed to stand for 20 min, and then added to the cell culture medium. They were then incubated with 5% CO2 at 37 °C for 5 h. The original culture medium was discarded and replaced with the DMEM culture medium. After overnight cultivation at 37 °C and 5% CO2, the transfected cells were transferred to a 96-well plate and cultured under the same conditions for 9 h.
The original culture medium was replaced with 80 μL/well loaded culture medium (containing 2 mM D-Luciferin protein) and incubated at room temperature (20–23 °C) in the dark for 2 h. A total of 10 μL/well with a concentration of 50 μM forskolin (for cAMP testing) or 250 μM SNAP (for cGMP testing) was added to the sample culture medium to increase the level of background cyclic nucleotides in the cells. According to the detection requirements, a certain concentration of analytes was sequentially added to different wells, and the luminescence signal was measured using the SynergyNeo2 (Agilent, Santa Clara, CA, USA) instrument at time 0. The measurement was conducted every 5 min, and the longest duration was based on the start of the luminescence signal’s decline.
(§1) Data analysis was carried out using Microsoft Excel and GraphPad Prism 8 software (version 8.0.2 for Windows, GraphPad Software, San Diego, CA, USA). The data in the luminescence signal from the replica well were averaged to produce a response vs. time curve. The cell screening results of the compounds were expressed as percentages (the difference in luminescence signals between the experimental group and the blank control group/blank control group luminescence signal × 100%). For the measurement of IC50, at least seven concentrations of chemicals were used, and IC50 values were calculated using the nonlinear method.
Considering the detection efficiency, the possible toxicity of the reagent to cells, and the Z-factor, the optimal concentration of the AC agonist forskolin required for the cell screening model targeting cAMP was set at 5 μM.
To determine the shortest detection time for the two cell models, the luminescence signal–time curve was established. Based on the variations in luminescence detection values over time from two sets of data (Figure 2), it was determined that the detection time for cell screening models targeting cAMP should not be less than 35 min, while the detection time for cell screening models targeting cGMP should not be less than 30 min.

Assay [1] concerns the target T1, Recombinant human PDE7A/HCP1 protein (Homo sapiens, UniProt Q13946).
T1 construct: purchased Abcam ab125786
Nature of the assay: In vitro enzymatic activity assay (PDE-Glo Phosphodiesterase Assay), PDE7A. In kind it is biochemical. On the procedure: (§2) Penicillin–Streptomycin solution (10,000 U/mL Penicillin, 10,000 μg/mL Streptomycin; Cat #C100C5) was obtained from NCM Biotech (Suzhou, China). Fetal Bovine Serum (FBS; Cat #BC-SE-FBS01) and phosphate-buffered saline (PBS; Cat #10010001) were obtained from Sbjbio (Nanjing, China). Trypsin-EDTA Solution (Cat #BL512A) was obtained from Biosharp (Hefei, China). DMEM medium (High Glucose; Cat #XB01-01) was obtained from VivaCell (Shanghai, China). Opti-MEM medium (Cat #Lvn1012A) was obtained from Livning (Beijing, China). […] The Lipofectamine™ 2000 Transfection Kit (Cat #11668500) was obtained from Thermo Fisher Scientific (Waltham, MA, USA). The pGloSensor™-22F cAMP Plasmid map (Cat #E2301), pGloSensor™-42F cGMP Plasmid map (Cat #CS177001), and PDE-Glo™ Phosphodiesterase Assay (Cat #V1361) were purchased from Promega (Madison, WI, USA). Recombinant human PDE4B protein (Cat #ab125582) and recombinant human PDE7A/HCP1 protein (Cat #ab125786) were obtained from Abcam (Cambridgeshire, UK). Compounds 1–7 were provided by Guoqiang Li’s research group (School of Medicine and Pharmacy, Ocean University, Qingdao, China).
(§3) The inhibitory activities of the compounds against PDE4B and PDE7A were determined according to the procedures required for the PDE-Glo™ Phosphodiesterase Assay.
as §1

In assay [2] the target is T2, Recombinant human PDE4B protein (Homo sapiens, UniProt Q07343).
T2 construct: purchased Abcam ab125582
Nature of the assay: In vitro enzymatic activity assay (PDE-Glo Phosphodiesterase Assay), PDE4B. The class given is biochemical. The procedure:
as §2, with “UK).” for “UK). Compounds 1–7 were provided by Guoqiang Li’s research group (School of Medicine and Pharmacy, Ocean University, Qingdao, China).”
as §3
Data analysis was carried out using Microsoft Excel and GraphPad Prism 8 software (version 8.0.2 for Windows, GraphPad Software, San Diego, CA, USA). The data in the luminescence signal from the replica well were averaged to produce a response vs. time curve. […] For the measurement of IC50, at least seven concentrations of chemicals were used, and IC50 values were calculated using the nonlinear method.

Another assay concerns PDE5. Also on record: method as in PMID 12646997. As to conditions: cited from earlier work.
The mark [3] stands for this setting: HEK293T cells, 25 μM SNAP, n = 3.

T1 sequence (Q13946 whole entry): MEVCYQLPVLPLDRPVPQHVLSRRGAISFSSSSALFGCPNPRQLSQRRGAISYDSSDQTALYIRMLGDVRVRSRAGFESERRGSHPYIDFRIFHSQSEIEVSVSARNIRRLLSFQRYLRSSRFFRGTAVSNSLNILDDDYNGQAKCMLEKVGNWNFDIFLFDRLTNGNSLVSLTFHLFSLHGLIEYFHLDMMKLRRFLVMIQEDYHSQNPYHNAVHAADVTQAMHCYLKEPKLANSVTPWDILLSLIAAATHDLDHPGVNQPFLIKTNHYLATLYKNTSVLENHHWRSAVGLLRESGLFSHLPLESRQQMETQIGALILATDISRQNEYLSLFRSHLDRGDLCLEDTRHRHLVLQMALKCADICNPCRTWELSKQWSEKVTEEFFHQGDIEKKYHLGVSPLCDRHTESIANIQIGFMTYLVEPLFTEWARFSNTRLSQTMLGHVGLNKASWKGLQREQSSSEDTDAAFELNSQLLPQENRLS
T2 sequence (Q07343 whole entry): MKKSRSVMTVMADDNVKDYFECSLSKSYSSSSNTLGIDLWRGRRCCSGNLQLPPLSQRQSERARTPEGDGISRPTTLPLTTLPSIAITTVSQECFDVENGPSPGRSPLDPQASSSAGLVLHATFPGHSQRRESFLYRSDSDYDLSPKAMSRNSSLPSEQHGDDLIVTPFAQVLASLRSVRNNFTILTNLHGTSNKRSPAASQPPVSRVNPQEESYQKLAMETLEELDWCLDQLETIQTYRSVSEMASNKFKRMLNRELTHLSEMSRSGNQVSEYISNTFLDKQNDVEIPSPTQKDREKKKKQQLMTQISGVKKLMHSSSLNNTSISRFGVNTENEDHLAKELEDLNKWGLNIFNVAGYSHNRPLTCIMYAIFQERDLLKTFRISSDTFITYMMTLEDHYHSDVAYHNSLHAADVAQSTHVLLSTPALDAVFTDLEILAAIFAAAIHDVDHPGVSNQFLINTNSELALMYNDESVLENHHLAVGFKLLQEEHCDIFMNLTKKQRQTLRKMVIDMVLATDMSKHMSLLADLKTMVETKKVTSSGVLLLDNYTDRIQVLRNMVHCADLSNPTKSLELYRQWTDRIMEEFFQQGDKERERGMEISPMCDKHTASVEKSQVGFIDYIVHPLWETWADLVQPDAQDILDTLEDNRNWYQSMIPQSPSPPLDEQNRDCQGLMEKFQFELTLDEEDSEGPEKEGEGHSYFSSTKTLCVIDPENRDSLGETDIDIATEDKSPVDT

Consider `CCCc1nn(C)c2c(=O)[nH]c(-c3cc(S(=O)(=O)N4CCN(C)CC4)ccc3OCC)nc12` [Sildenafil, sildenafil], for which the IC50 in the assay with cGMP-related PDEs (setting [3]) is approximately 0.1 µM.
As to `COc1ccc(C2CNC(=O)C2)cc1OC1CCCC1` (stereo not shown) [Rolipram, rolipram, reference compound], in the assay on cAMP-related PDEs, the IC50 was approximately 0.1 µM and the “Luminescence Signal (%)” value worked out at 300%. In the assay on cAMP-related PDEs (rolipram 5 μM, forskolin 5 μM, cAMP cell model), the “difference in luminescence signal values between rolipram and PBS groups” value was “over 1000”.
Regarding `Cc1c(O)c(C)c2c(c1O)C(=O)O[C@](C)(O)[C@H]2C` [Compound 7, (3S,4S)-sclerotinin A], in assay [1], the IC50 was ~5.6 µM and 5.6 µM. Moreover, the “Luminescence Signal (%)” value with cAMP-related PDEs is recorded as 53%. Also, in assay [2], the IC50 came out at 28.2 µM and the “PDE4B inhibitory activity (in words)” value is recorded as “weak”.
As for `COc1cc(C=Cc2ccccn2)cc(OC)c1OC` [Compound 2, 2-[2-(3,4,5-Trimethoxyphenyl)-ethenyl] pyridine], the half-inhibitory concentration (IC50) was 47.4 µM in assay [1] and 25.5 µM in assay [2]. The “Luminescence Signal (%)” value in the assay with cAMP-related PDEs amounted to 51%.
Turning to `COc1ccc(-c2oc3c(CC=C(C)C)c(O[C@@H]4O[C@H](CO)[C@@H](O)[C@H](O)[C@H]4O)cc(O)c3c(=O)c2O[C@@H]2O[C@@H](C)[C@H](O)[C@@H](O)[C@H]2O)cc1` [Icariin], the IC50 in the assay on PDE5 was 0.432 µM; with cGMP-related PDEs, 642 µM.
For the compound `CC(C)Cn1c(=O)n(C)c(=O)c2[nH]cnc21` [IBMX, Isobutylmethylxanthine, reference compound], the IC50 in the assay on cAMP-related PDEs came out at 28.6 µM; with cGMP-related PDEs (setting [3]) it was 184 µM.
As to `COc1ccccc1C=Cc1ccc(N(C)C)cc1` [Compound 5, 4-[2-(2-Methoxyphenyl)-ethenyl]-N,N-dimethylbenzenamine], the concentration for half-maximal inhibition (IC50) in assay [1] was 2.1 µM; in assay [2], 14.1 µM. In the assay on cAMP-related PDEs, the “Luminescence Signal (%)” value was found to be 55%.
With `Cc1ccc([N+](=O)[O-])cc1S(=O)(=O)N(C)C` [BRL-50481, reference compound], the IC50 in assay [1] was 0.2 µM.
As for `COc1cc(C=Cc2ccncc2)cc(OC)c1OC` [Compound 4, 4-[2-(3,4,5-Trimethoxyphenyl)-ethenyl] pyridine], the figures for the IC50 in assay [1] and in assay [2] were 8.6 µM and 12.6 µM, respectively. In addition, the “Luminescence Signal (%)” value in the assay on cAMP-related PDEs amounted to 77%.
Turning to `Cc1nc(-c2cnn(C)c2-c2ccc(C(F)(F)F)cn2)c2c(N3CCC3)ncnn12` [PF-999, PF-05180999, reference compound], the IC50 in the assay on cAMP-related PDEs worked out at 142 µM; in the assay with cGMP-related PDEs (setting [3]), 45.6 µM.
With `CC(=O)O[C@@H]1C(=O)CCC2=CCC[C@H](C)[C@@]2(C)/C=C\1C` [Compound 6, 4-acetoxy-2,8-neolemnadien-5-one], in assay [1], the IC50 stood at 36.2 µM and the “PDE7A inhibitory activity (in words)” value is recorded as “weak”. Besides, the “Luminescence Signal (%)” value in the assay on cAMP-related PDEs is on record as 51%.
On to `Clc1cccc(Cl)c1C=Cc1ccccn1` [Compound 1, 2-[2-(2,6-Dichlorophenyl)-ethenyl] pyridine], for which the 50% inhibitory concentration (IC50) in assay [1] is 28.7 µM; in assay [2], 63.7 µM. Besides, in the assay with cAMP-related PDEs, the “Luminescence Signal (%)” value is listed as 109%.
Turning to `COc1cc(C=Cc2cccnc2)cc(OC)c1OC` [Compound 3, 3-[2-(3,4,5-Trimethoxyphenyl)-ethenyl] pyridine], the IC50 was 4.5 µM in assay [1] and 5.7 µM in assay [2]. In the assay on cAMP-related PDEs, the “Luminescence Signal (%)” value amounted to 87%.
For the compound `COc1cc2c(cc1OC)-c1c(OC)c(OC)cc3c1[C@H](C2)N(C)CC3` [Glaucine, reference compound], in the assay with cAMP-related PDEs, the 50% inhibitory concentration (IC50) worked out at 59.8 µM.

As usually defined, the IC50 is the concentration at which inhibition is half-maximal.
